Data set [1] deals with MCF-7 (human breast cancer) cells. Kind of data set: Cytotoxicity MTT assay, MCF-7. It is filed as cell-based. The conditions noted are these: 48 h incubation. Here is the method: (§1) The cytotoxicity of compounds 5, 18, and 41 against human liver cancer (HepG2) and human breast cancer (MCF-7) cell lines in vitro was evaluated using the MTT assay, with cisplatin as a positive control. Cells were plated into 96-well plates and incubated in 100 μL of Dulbecco’s modified Eagle’s medium for 24 h. Test compounds at specified final concentrations were then added to the culture medium. After 48 h incubation, MTT dye (10 μL, 0.5 mg/mL) was added, and cells were incubated for an additional 4 h at 37°C in 5% CO2. Formazan crystals were dissolved in 100 μL DMSO per well, and absorbance at 570 nm (OD570) was measured using an ELx800 microplate reader (Bio-Tek, Winooski, VT, USA) with background subtraction. Cytotoxicity was expressed as IC50 (the concentration causing 50% reduction in cell growth compared to untreated controls). Experiments were performed in triplicate, with results presented as mean ± standard deviation.
For orientation: Tetrazolium assays rely on reduction of a dye to a coloured formazan, in cell work by metabolically active cells.

Data set [2] has as its system HepG2 (human liver cancer) cells. Kind of data set: Cytotoxicity MTT assay, HepG2. It is filed as cell-based. The conditions noted are these: 48 h incubation. The protocol: as §1
The test system of data set [3] is adult worms of S. japonicum (Chinese strain). In words: microbe, parasite or virus in culture. The conditions noted are these: for Mortality (%) 72 h: 100 μM, adult worms in vitro. The protocol: S. japonicum cercariae (Chinese strain) were acquired from infected Oncomelania hupensis snails (Wuxi Insect Vector Biology Co., Ltd., China) ([28]). ICR mice (6–8 weeks, 22–25 g; Hunan SJA Laboratory Animal Co., Ltd., China) were percutaneously infected via abdominal exposure to 60 ± 5 cercariae. Adult schistosomes were perfused from the hepatic portal system at 35 dpi using a modified Duvall and DeWitt method ([29]). Animals were housed under controlled conditions (22°C ± 1°C, 12 h light/dark cycle) with ad libitum access to feed and water.
Adult S. japonicum worms isolated from ICR mice were maintained in sterile culture medium (2.0 mL) comprising 77% RPMI 1640 (Lanzhou Bailing Biotech Co., Ltd.; pH 7.5, HEPES-buffered), 20% heat-inactivated fetal bovine serum (Lanzhou Minhai Bio-Engineering Co., Ltd.), and 3% penicillin-streptomycin (100×; 10,000 U/mL penicillin, 10,000 μg/mL streptomycin; New Cell & Molecular Biotech Co., Ltd., China). Incubation was performed at 37°C under 5% CO2. Test compounds were dissolved in DMSO as 0.1 M stock solutions; 2.0 μL aliquots were added to worm-containing media (final concentration: 100 μM in 0.1% DMSO). Negative controls received equivalent volumes of vehicle (0.1% DMSO in RPMI 1640). Parasite viability (motor activity, tegumental integrity, survival) was assessed every 12 h for 72 h using an Olympus CKX53 inverted microscope (n ≥ 3 independent replicates).

Data set [4] deals with S. japonicum (Chinese strain). Kind of data set: In vivo antischistosomal assay in infected mice (worm burden, worm morphology, liver eggs). On the set-up: species or system Schistosoma japonicum in ICR mice. The protocol: Lead compounds 5, 18, and 41 (100 mg/kg) were orally administered once daily for 5 consecutive days to infected mice (n = 6/group) during two therapeutic windows: (i) Juvenile stage: treatment initiated at 9 dpi, terminal sacrifice at 45 dpi; (ii) adult stage: treatment initiated at 35 dpi, terminal sacrifice at 45 dpi. Positive controls received praziquantel (PZQ, 100 mg/kg/day ×5 days); negative controls received PBS (0.3 mL). Mice treated at 9 dpi were euthanized 36 days post-treatment; those treated at 35 dpi were euthanized 10 days post-treatment. Adult worms were perfused from the hepatic portal system and mesenteric veins. Parasite burden was quantified by worm enumeration, and worm burden reduction (WBR) was calculated:
WBR (%)=[1−Mean worm count (treated) / Mean worm count (control)]×100% .

In a further data set the test system is adult S. japonicum worms. In words: SEM examination in vitro of tegumental damage. It is filed as cell-based, Schistosoma japonicum. The conditions noted are these: 100 μM. Here is the method: Adult S. japonicum worms (male/female) underwent standardized fixation after in vitro exposure to compounds 5, 18, and 41 over a period of 12 h. First, the samples were immersed in 2.5% glutaraldehyde (prepared with 40 mL 0.2 M phosphate-buffered saline [PBS, pH 7.4], 5 mL 50% glutaraldehyde stock, and 55 mL ultrapure water) at 4°C for 24 h. After triple washes in PBS for 5 min each, worms were rinsed with deionized water for 10 min. The next dehydration sequence included ethanol gradient (50%, 70%, 80%, 90%, 100%; 5 min/step) and tert-butanol gradient (50%, 70%, 90%, 100%; 10 min/step). The worms were freeze-dried, directly sputter-covered with a thin gold layer using a Sputter Coater, and imaged using a scanning electron microscope (Quanta 450).

The mark [5] stands for this setting: Schistosoma japonicum, 24 h, read-out: Mortality (%) 24 h, 100 μM, 24 h, adult worms in vitro.
[6] abbreviates: Schistosoma japonicum, 36 h, read-out: Mortality (%) 36 h, 100 μM, 36 h, adult worms in vitro.
Where [7] appears, read: Schistosoma japonicum, 48 h, read-out: Mortality (%) 48 h, 100 μM, 48 h, adult worms in vitro.
[8] abbreviates: Schistosoma japonicum, 72 h, read-out: Mortality (%) 72 h, 100 μM, 72 h, adult worms in vitro.

Structures are written as SMILES. Read-outs that look alike come from different tables or passages of the source.

In the case of `N.N.[Cl][Pt][Cl]` [Cisplatin, reference compound], the IC50 in data set [1] was 1.17 ± 0.13 µM; in data set [2] it was 3.51 ± 0.14 µM.
Consider `Cc1cccc(N(C)NC(=O)c2ccc(Br)cc2)c1` [Compound 33], for which the mortality at 100 µM in data set [3] (setting [5]) was determined as 0%; in data set [3] (setting [6]), 15%; in data set [3] (setting [7]) it was 40%; in data set [3] (setting [8]), 70%.
On to `COc1ccc(N(C)NC(=O)c2ccc(Cl)c(Cl)c2)cc1` [Compound 2], for which the mortality at 100 µM in data set [3] (setting [5]), in data set [3] (setting [6]), in data set [3] (setting [7]) and in data set [3] (setting [8]) was 0% in each case.
With `CN(NC(=O)c1ccc(Br)cc1)c1ccc(C#N)cc1` [Compound 32], the mortality at 100 µM in data set [3] (setting [5]), in data set [3] (setting [6]), in data set [3] (setting [7]) and in data set [3] (setting [8]) was 0% throughout.
In the case of `O=C(C1CCCCC1)N1CC(=O)N2CCc3ccccc3C2C1` (stereo not shown) [PZQ, praziquantel, reference compound], the “Worm burden reduction (WBR), Adult” value in data set [4] (mice, oral 100 mg/kg/day for 5 days, adult stage (from 35 dpi), 100 mg/kg/day) is recorded as 100%. In data set [4] (mice, oral 100 mg/kg/day for 5 days, adult stage (treatment from 35 dpi, sacrifice 45 dpi)), the “Number of worms, Adult” value is 0. The “Morphology of worms after treatment in vivo, juvenile stage” value in data set [4] (mice, oral 100 mg/kg/day for 5 days, juvenile stage) is “no significant tegumental alterations compared to negative controls”. In data set [4] (mice, oral 100 mg/kg/day for 5 days, juvenile stage (from 9 dpi), 100 mg/kg/day), the “Worm burden reduction (WBR), Juvenile” value amounted to 0%. In data set [4] (mice, oral 100 mg/kg/day for 5 days, juvenile stage (treatment from 9 dpi, sacrifice 45 dpi)), the “Number of worms, Juvenile” value amounted to 39. The “Hepatic egg burden, adult-stage treatment” value in data set [4] (mouse livers at 45 dpi, treatment in adult stage) is “significantly reduced both ovum dimensions and egg counts”. Besides, in data set [4] (mouse livers at 45 dpi, treatment in juvenile stage), the “Hepatic egg burden, juvenile-stage treatment” value is reported as “without statistically significant ovicidal efficacy”. The “Tegumental damage (SEM), female adult worms” value in the data set with adult S. japonicum worms (female worms) is “multifocal vesiculation, ulcerative lesions penetrating the basal lamina, and progressive tegumental corrugation”. In addition, the “Tegumental damage (SEM), male adult worms” value with adult S. japonicum worms (male worms) is “extensive tegumental desquamation, complete muscular layer exposure with striation disruption, and ventral sucker collapse”. The mortality at 100 µM in data set [3] (Schistosoma japonicum, 24 h, read-out: Mortality (%) 24 h) was 100%; in data set [3] (Schistosoma japonicum, 36 h, read-out: Mortality (%) 36 h), 100%; in data set [3] (Schistosoma japonicum, 48 h, read-out: Mortality (%) 48 h), 100%; in data set [3] (Schistosoma japonicum, 72 h, read-out: Mortality (%) 72 h), 100%. For the same molecule, the LC50 in data set [3] (Schistosoma japonicum, 72 h, read-out: LC50 (72 h)) is 43.8 ± 8.26 µM.
As to `CN(NC(=O)c1ccc([N+](=O)[O-])cc1)c1ccc(Cl)c(Cl)c1` [Compound 21], the mortality at 100 µM in data set [3] (setting [5]) stood at 0%; in data set [3] (setting [6]), 0%; in data set [3] (setting [7]), 30%; in data set [3] (setting [8]) it was 65%.
Regarding `CN(NC(=O)c1ccc(C#N)cc1)c1ccc(Cl)c(Cl)c1` [Compound 20], the “Mortality (%) 72 h” value in data set [3] (72 h) turned out to be 100%. In addition, the mortality at 100 µM was 0% in data set [3] (setting [5]), 0% in data set [3] (setting [6]), 60% in data set [3] (setting [7]) and above 90% in data set [3] (setting [8]).
For the molecule `CN(NC(=O)c1ccc(Cl)c(Cl)c1)c1cccc(Cl)c1` [Compound 8], the “Mortality (%) 72 h” value in data set [3] (72 h) turned out to be 100%. For the same molecule, the mortality at 100 µM in data set [3] (setting [5]) is 0%; in data set [3] (setting [6]), 0%; in data set [3] (setting [7]), 40%; in data set [3] (setting [8]), above 80%.
Turning to `CN(NC(=O)c1ccc(Br)cc1)c1ccc(Cl)cc1` [Compound 29], the mortality at 100 µM amounted to 0% in data set [3] (setting [5]), 0% in data set [3] (setting [6]), 0% in data set [3] (setting [7]) and 35% in data set [3] (setting [8]).
For the molecule `COc1ccc(C(=O)NN(C)c2ccc(Cl)c(Cl)c2)cc1` [Compound 16], the “Mortality (%) 72 h” value in data set [3] (72 h) is 100%. Also, the mortality at 100 µM is 0% in data set [3] (setting [5]), 0% in data set [3] (setting [6]), 65% in data set [3] (setting [7]) and above 90% in data set [3] (setting [8]).
With `CN(NC(=O)c1ccc(Cl)c(Cl)c1)c1ccccc1Cl` [Compound 12], the mortality at 100 µM in data set [3] (setting [5]), in data set [3] (setting [6]), in data set [3] (setting [7]) and in data set [3] (setting [8]) was 0% each time.

One may read the IC50 as the point on the concentration scale where inhibition reaches its midpoint. Broadly, the mortality is the share of the test organisms that died. One may read the LC50 as the concentration that kills 50% of the test population.

The values above are taken from PMC12889028, “Discovery and biological evaluation of novel N-aryl-N′-methylbenzodrazides against Schistosoma japonicum in vitro and in vivo” (Microbiology Spectrum, 2025).
